This is an account of results in patent US20240398786A1, “7-ETHYL-10-HYDROXY-CAMPTOTHECIN (SN-38) ALBUMIN CONJUGATES FOR TREATMENT OF CANCERS” (Ohio State Innovation Foundation, priority 2021, published 2024).

The test system of one data set is H23 shCtrl/shCav-1 cells. In words: Uptake by direct fluorescence in H23 shCtrl vs shCav-1 cells. In kind it is cell-based. As to conditions: 250 nM pulsed 2 h. On the procedure:
(§1) Cells were pulsed either 1 hour with 0.1% FITC-HAS or 2 hours with 250 nM SN/38/SSH20 prior to fixation. When applicable, in order to remove membrane-bound albumin, two acid/salt washes were performed with 0.1M glycine and 0.1M NaCl, pH 3.02 for 2 minutes each, followed by two washes with phosphate buffer saline (PBS). Cells were then fixed with 2% paraformaldehyde for 15 minutes at room temperature and washed 1×PBS 2 times for 5 minutes each. Cells were incubated with 0.1% Triton-x-100 for 10 min on ice to permeabilize, then washed twice with 1×PBS prior to blocking with 3% bovine serum albumin in 1×PBS overnight at 4° C. In a humidified chamber, primary antibodies (1:50) in blocking buffer were added and incubated for 1 hour at 4° C., followed by three 10 minute rinses with blocking buffer. Secondary antibody (conjugated to Alexa Fluor 488, 1:1000) was added along with DAPI for 1 hour at room temperature. Cells were then rinsed, and coverslips were mounted onto slides and then sealed. Cells were then imaged with a confocal microscope with locked settings across the control and respective experimental conditions. For auto-fluorescence experiments with SN-30 and SSH20, images were taken at an emission wavelength of 543 nm. ImageJ was used to measure the fluorescence intensity of individual cells.

Data set [1] deals with MIA-PaCa-2 (MP2) shCtrl/shCav-1 cells. Nature of the data set: Uptake by direct fluorescence in MP2 shCtrl vs shCav-1 cells. In kind it is cell-based. As to conditions: 250 nM pulsed 2 h. Here is the method: as §1
For data set [2] the following is noted: pharmaceutical solvents; cited from earlier work.
A further data set relates to MP2 cell line. In words: Inhibitory activity of SN-38/HSA conjugates against the MP2 cell line. In kind it is cell-based. Here is the method: AlamarBlue proliferation assay was performed according to the manufacturer's instructions (BioRad Antibodies, Oxford, UK). Briefly, cells were seeded in 96-well plates in 4 replicates at a density of 100-300 cells per well in 100 μL medium and treated as described. Seventy-two hours after plating, alamarBlue reagent was added and incubated at 37° C. for 4-8 hours, and absorbance was measured at 570 and 600 nm.

Data set [3] concerns H23-shCtrl/shCav-1 tumors. Nature of the data set: H23-shCtrl/shCav-1 flank xenografts in athymic nude mice. In kind it is in vivo. As to conditions: SSH20 10 mg/kg or molar equivalent of irinotecan, intravenous retro-orbital. Here is the method: (§2) Briefly, 180 μL of SSH20 was added to 1620 μL of pooled human serum off the clot (Innovative Research, Novi, MI) to form a 10% SSH20 solution, which was incubated at 37° C. Aliquots were collected at preset time points, a fixed amount of internal standard (10-hydroxycamptothecin, 10-HCPT) was added to each sample aliquot and the solutions were mixed thoroughly on vortex prior to protein precipitation by acetonitrile. Protein precipitates were pulled down by 17,000×g centrifugation for 5 minutes. The dissociated SN-38 in the supernatant was analyzed by reverse-phase HPLC, using parameters described above, detected by PDA at 368 nm. SN-38/internal standard peak ratios were correlated with an SN-38 standard curve (using the same preparation method) to obtain the concentrations of released SN-38. The plot of the kinetics of SN-38 release was generated by Prism, and the half-life was calculated by one-phase exponential association. […] To obtain a tumor growth curve, perpendicular diameter measurements of each tumor were measured every 1-5 days from the first day of injection with digital calipers, and volumes were calculated using the formula (L×W×W)/2. Weight and clinical signs of toxicity were monitored several times per week.

Data set [4] has as its system MP2-shCtrl/shCav-1 tumors. Nature of the data set: MP2-shCtrl/shCav-1 flank xenografts in athymic nude mice. In kind it is in vivo. As to conditions: SSH20 10 mg/kg or molar equivalent of irinotecan, intravenous retro-orbital. On the procedure:
as §2

Usually IC50 stands for the concentration at which inhibition is half-maximal. As for `CCc1c2c(nc3ccc(O)cc13)-c1cc3c(c(=O)n1C2)COC(=O)[C@]3(O)CC` [SN-38, 7-ethyl-10-hydroxy-camptothecin], the “difference in SN-38 autofluorescent signal between shCtrl and shCav-1 cells” value (in the data set with H23 shCtrl/shCav-1 cells; in data set [1]) was “no discernable difference” throughout. The “solubility, in words” value in data set [2] is on record as “virtually insoluble in any pharmaceutical solvent”. In the data set with MP2 cell line, half-maximal inhibition (IC50) was put at 495 nM.

As for `CCc1c2c(nc3ccc(OC(=O)N4CCC(N5CCCCC5)CC4)cc13)-c1cc3c(c(=O)n1C2)COC(=O)[C@]3(O)CC` [irinotecan, Irinotecan], the tumor growth rate entry in data set [3] and in data set [4] was “not reduced” throughout.
